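These data come from cells grown in 96-well plates and exposed to compound for 48 hours at five concentrations. Definition used: TGI = concentration required for complete inhibition of growth.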
Columns and labels:
Assay in all cases: inhibition of tumour cell growth, NCI panel, 48 h
NCI-H460 lung = tested on: NCI-H460 lung
SK-OV-3 ovarian = tested on: SK-OV-3 ovarian
IGROV1 ovarian = tested on: IGROV1 ovarian
DMS 114 small cell lung = tested on: DMS 114 small cell lung
RXF 393 renal = tested on: RXF 393 renal
HL-60(TB) leukemia = tested on: HL-60(TB) leukemia
SW-620 colon = tested on: SW-620 colon
SK-MEL-28 melanoma = tested on: SK-MEL-28 melanoma
HCC-2998 colon = tested on: HCC-2998 colon
M19-MEL melanoma = tested on: M19-MEL melanoma
OVCAR-4 ovarian = tested on: OVCAR-4 ovarian
SF-295 CNS = tested on: SF-295 CNS
TK-10 renal = tested on: TK-10 renal
DMS 273 small cell lung = tested on: DMS 273 small cell lung
SK-MEL-2 melanoma = tested on: SK-MEL-2 melanoma
HOP-18 NSCLC = tested on: HOP-18 NSCLC
SR leukemia = tested on: SR leukemia
UACC-62 melanoma = tested on: UACC-62 melanoma
786-0 renal = tested on: 786-0 renal
HCT-116 colon = tested on: HCT-116 colon
LXFL 529 NSCLC = tested on: LXFL 529 NSCLC
MOLT-4 leukemia = tested on: MOLT-4 leukemia
RXF-631 renal = tested on: RXF-631 renal
HOP-92 NSCLC = tested on: HOP-92 NSCLC
A498 renal = tested on: A498 renal
SF-268 CNS = tested on: SF-268 CNS
XF 498 CNS = tested on: XF 498 CNS
MALME-3M melanoma = tested on: MALME-3M melanoma
K-562 leukemia = tested on: K-562 leukemia
U251 CNS = tested on: U251 CNS
SK-MEL-5 melanoma = tested on: SK-MEL-5 melanoma
M14 melanoma = tested on: M14 melanoma
NCI-H226 lung = tested on: NCI-H226 lung
UACC-257 melanoma = tested on: UACC-257 melanoma
COLO 205 colon = tested on: COLO 205 colon
SNB-78 CNS = tested on: SNB-78 CNS
HT29 colon = tested on: HT29 colon
ACHN renal = tested on: ACHN renal
HOP-62 NSCLC = tested on: HOP-62 NSCLC
NCI-H23 lung = tested on: NCI-H23 lung
HCT-15 colon = tested on: HCT-15 colon
RPMI-8226 leukemia = tested on: RPMI-8226 leukemia
UO-31 renal = tested on: UO-31 renal
EKVX NSCLC = tested on: EKVX NSCLC
DLD-1 colon = tested on: DLD-1 colon
LOX IMVI melanoma = tested on: LOX IMVI melanoma
OVCAR-8 ovarian = tested on: OVCAR-8 ovarian
OVCAR-3 ovarian = tested on: OVCAR-3 ovarian
A549 NSCLC = tested on: A549 NSCLC
OVCAR-5 ovarian = tested on: OVCAR-5 ovarian
KM20L2 colon = tested on: KM20L2 colon
KM12 colon = tested on: KM12 colon
SF-539 CNS = tested on: SF-539 CNS
CCRF-CEM leukemia = tested on: CCRF-CEM leukemia

C#CC1(O)CCC2[C@@H]3CCc4cc(Oc5nc(F)nc(-c6c7ccccc7c(SCC)n6CCC)n5)ccc4C3CC[C@@]21C (some centres undefined)
TGI (NCI-H460 lung): > 100 µM | TGI (SK-OV-3 ovarian): > 100 µM | TGI (IGROV1 ovarian): > 100 µM | TGI (DMS 114 small cell lung): > 100 µM | TGI (RXF 393 renal): 55.4 µM | TGI (HL-60(TB) leukemia): > 100 µM | TGI (SW-620 colon): > 100 µM | TGI (SK-MEL-28 melanoma): > 100 µM | TGI (HCC-2998 colon): > 100 µM | TGI (M19-MEL melanoma): > 100 µM | TGI (OVCAR-4 ovarian): > 100 µM | TGI (SF-295 CNS): > 100 µM | TGI (TK-10 renal): > 100 µM | TGI (DMS 273 small cell lung): > 100 µM | TGI (SK-MEL-2 melanoma): > 100 µM | TGI (HOP-18 NSCLC): > 100 µM | TGI (SR leukemia): > 100 µM | TGI (UACC-62 melanoma): > 100 µM | TGI (786-0 renal): > 100 µM | TGI (HCT-116 colon): > 100 µM | TGI (LXFL 529 NSCLC): > 100 µM | TGI (MOLT-4 leukemia): > 100 µM | TGI (RXF-631 renal): > 100 µM | TGI (HOP-92 NSCLC): > 100 µM | TGI (A498 renal): > 100 µM | TGI (SF-268 CNS): > 100 µM | TGI (XF 498 CNS): > 100 µM | TGI (MALME-3M melanoma): > 100 µM | TGI (K-562 leukemia): > 100 µM | TGI (U251 CNS): > 100 µM | TGI (SK-MEL-5 melanoma): > 100 µM | TGI (M14 melanoma): > 100 µM | TGI (NCI-H226 lung): 50.1 µM | TGI (UACC-257 melanoma): > 100 µM | TGI (COLO 205 colon): > 100 µM | TGI (SNB-78 CNS): > 100 µM | TGI (HT29 colon): > 100 µM | TGI (ACHN renal): > 100 µM | TGI (HOP-62 NSCLC): > 100 µM | TGI (NCI-H23 lung): 63.9 µM | TGI (HCT-15 colon): > 100 µM | TGI (RPMI-8226 leukemia): > 100 µM | TGI (UO-31 renal): > 100 µM | TGI (EKVX NSCLC): > 100 µM | TGI (DLD-1 colon): > 100 µM | TGI (LOX IMVI melanoma): > 100 µM | TGI (OVCAR-8 ovarian): > 100 µM | TGI (OVCAR-3 ovarian): > 100 µM | TGI (A549 NSCLC): > 100 µM | TGI (OVCAR-5 ovarian): > 100 µM | TGI (KM20L2 colon): > 100 µM | TGI (KM12 colon): > 100 µM | TGI (SF-539 CNS): > 100 µM | TGI (CCRF-CEM leukemia): > 100 µM
